Results as given in article PMC7395068, “The evolution of strategies to minimise the risk of human drug-induced liver injury (DILI) in drug discovery and development” (Archives of Toxicology, 2020).
Where two headings read alike, the source gives them in different places.

What was measured:
[1] = Plasma free fraction (fu) and unbound Cmax (Cmax,u); assay type: in vitro ADME, human; conditions: unbound plasma Cmax
[2] = cited from earlier work; for DILI severity category (Chen 2016): human DILI classification, LTKB DILIrank
[3] = tested on: primary human hepatocytes, NIH3T3 fibroblasts, BSEP, CYP3A4; conditions: cited from earlier work
HepG2 cells [4] = conditions: cited from earlier work
HepG2 cells [5] = conditions: cited from earlier work; remark: listed apart in the source
human hepatocytes = conditions: cited from earlier work
PHH = conditions: cited from earlier work
hLiMTs [6] = conditions: cited from earlier work
[7] = tested on: HepG2 C3A spheroid, BSEP, Glu/Gal in HepG2 cells, bioactivation; conditions: cited from earlier work
[8] = read-out: Human plasma Cmax; total plasma Cmax.tot, median of 9 literature references; cited from earlier work
[9] = plasma free fraction; cited from earlier work
[10] = cited from earlier work
[11] = tested on: THLE-Null and THLE-3A4 cells; conditions: In vitro Assay; ref Gustafsson 2014; cited from earlier work
[12] = tested on: HepG2 cells, primary human hepatocytes; conditions: In vitro Assay; ref Garside 2014; cited from earlier work
[13] = ref Chen 2011; cited from earlier work
rBsep = conditions: In vitro Assay; ref Dawson 2012; cited from earlier work
hLiMTs [14] = experiment: Combined HCI (HCS) and cellular ATP 3D assay in hLiMTs; conditions: for AC50 / minimal effective concentration: Homo sapiens
HepaRG spheroids = experiment: Combined HCI (HCS) and cellular ATP 3D assay in HepaRG spheroids; conditions: for AC50 / minimal effective concentration: Homo sapiens
[15] = In vitro Assay, ref Schadt 2015
[16] = In vitro Assay, ref Persson 2013
[17] = In vitro Assay, ref Proctor 2017
[18] = Microtissue model structural based (HCI), combined HCS and ATP, MEC < 25 × Cmax.tot cut-off

Human plasma Cmax,u [1]: 29 nM
hLiMTs <25x Avg Cmax ATP (hLiMTs [14]; hLiMTs, ATP endpoint, cut-off <25x Avg Cmax): +ve
hLiMTs <100x Avg Cmaxu ATP (hLiMTs [14]; hLiMTs, ATP endpoint, cut-off <100x Avg Cmaxu): -ve
hLiMTs <25x Avg Cmax HCS (hLiMTs [14]; hLiMTs, HCS endpoints, cut-off <25x Avg Cmax): +ve
hLiMTs <100x Avg Cmaxu HCS (hLiMTs [14]; hLiMTs, HCS endpoints, cut-off <100x Avg Cmaxu): -ve
hLiMTs <25x Avg Cmax All (hLiMTs [14]; hLiMTs, all endpoints (ATP and HCS), cut-off <25x Avg Cmax): +ve
hLiMTs Cmax max All (hLiMTs [14]; hLiMTs, all endpoints, Cmax max used): +ve
hLiMTs Cmax min All (hLiMTs [14]; hLiMTs, all endpoints, Cmax min used): +ve
hLiMTs <10 uM All (hLiMTs [14]; hLiMTs, all endpoints, cut-off <10 uM): +ve (<10 uM)
hLiMTs <100x Avg Cmaxu All (hLiMTs [14]; hLiMTs, all endpoints, cut-off <100x Avg Cmaxu): -ve
HepaRG <25x Avg Cmax ATP (HepaRG spheroids; HepaRG, ATP endpoint, cut-off <25x Avg Cmax): +ve
HepaRG <100x Avg Cmaxu ATP (HepaRG spheroids; HepaRG, ATP endpoint, cut-off <100x Avg Cmaxu): -ve
HepaRG <25x Avg Cmax HCS (HepaRG spheroids; HepaRG, HCS endpoints, cut-off <25x Avg Cmax): +ve
HepaRG <100x Avg Cmaxu HCS (HepaRG spheroids; HepaRG, HCS endpoints, cut-off <100x Avg Cmaxu): -ve
HepaRG <25x Avg Cmax All (HepaRG spheroids; HepaRG, all endpoints (ATP and HCS), cut-off <25x Avg Cmax): +ve
HepaRG Cmax max All (HepaRG spheroids; HepaRG, all endpoints, Cmax max used): +ve
HepaRG Cmax min All (HepaRG spheroids; HepaRG, all endpoints, Cmax min used): +ve
HepaRG <10 uM All (HepaRG spheroids; HepaRG, all endpoints, cut-off <10 uM): -ve
HepaRG <100x Avg Cmaxu All (HepaRG spheroids; HepaRG, all endpoints, cut-off <100x Avg Cmaxu): -ve
Compound: CCc1ccc(CCOc2ccc(CC3SC(=O)NC3=O)cc2)nc1 (stereo not shown) [pioglitazone, reference compound]
DILI severity category (Chen et al. [2016]) ([2]; LTKB DILIrank category, ref Chen et al. 2016): Less
DILI severity category (Chen 2016) ([2]; ref Chen et al. 2016): Less
DILI severity category (Chen 2016) ([2]; ref Chen et al. 2016, listed as Pioglitazone): Less DILI severity
DILI severity category ([2]; human DILI severity, ref Chen et al.): Less
DILI +VE (5-8), DILI -VE (-4) ([2]; ref Chen 2016): +VE
DILI severity category ([2]; ref Chen 2016): vLess-DILI-Concern
DILI in vitro assay prediction, Schadt (2015) ([3]; BSEP & Metabolism based, ref Schadt et al. 2015): +VE
Cellular toxicity (3T3 cells) [3, 15]: -VE
Combined Assay [3, 15]: +VE
GSH adduct HML [3, 15]: -VE
Hepatocyte cellular toxicity [3, 15]: +VE
MitoTox 3T3 [3, 15]: -VE
TDI CYP3A4 [3, 15]: -VE
hBSEP inhibition [3, 15]: +VE
Structural based (HCI) (HepG2 cells [4]; In vitro Assay, ref O'Brien 2006): +VE
DILI in vitro assay prediction, O'Brien (2006) (HepG2 cells [4]; Structural based (HCI), HepG2, ref O'Brien et al. 2006): -VE
Cluser analysis (HepG2 cells [5]; [16]): -VE
Structural based (HCI) (HepG2 cells [5]; [16]): +VE
DILI in vitro assay prediction, Persson (2013) (HepG2 cells [5]; Structural based (HCI), HepG2, ref Persson et al. 2013): -VE
Structural based (HCI) (human hepatocytes; In vitro Assay, ref Xu 2008): -VE
DILI in vitro assay prediction, Xu (2008) (human hepatocytes; Structural based (HCI), human hepatocytes, ref Xu et al. 2008): -VE
PHH/100xCmax, Proctor (2017) (PHH; 2D PHH, ATP, IC50 < 100 × Cmax.tot, ref Proctor et al. 2017): -VE
PHH/100uM, Proctor (2017) (PHH; 2D PHH, ATP, IC50 threshold 100 µM, ref Proctor et al. 2017): -VE
PHH ATP <100uM (PHH; [17]): -VE
hLiMTs ATP <100uM (hLiMTs [6]; [17]): -VE
hLiMTs/100xCmax, Proctor (2017) (hLiMTs [6]; hLiMTs, ATP, IC50 < 100 × Cmax.tot, ref Proctor et al. 2017): -VE
hLiMTs/100uM, Proctor (2017) (hLiMTs [6]; hLiMTs, ATP, IC50 threshold 100 µM, ref Proctor et al. 2017): -VE
Bayesian Machine Learning DILI prediction, Williams (2019) ([7]; Bayesian modeling, ref Williams et al. 2019): +VE
Bayesian Machine Learning ([7]; In vitro Assay, ref Williams 2019): +VE
Cmax [8]: 2950 nM
fu [9]: 0.010
Assigned DILI category ([10]; Chen et al. 2016 or literature alignment, ref Chen et al. 2016): 2
In vivo DILI ([10]; […]): -VE
In vivo DILI ([10]; ref Dawson 2012): +VE
In vivo DILI ([10]; ref Garside 2014): +VE
in vivo DILI categorisation in the literature ([10]; ref Garside et al. 2014, Proctor et al. 2017, Gustafsson et al. 2014): in vivo DILI positive
In vivo DILI ([10]; ref Gustafsson 2014): +VE
In vivo DILI ([10]; ref O'Brien 2006): -VE
in vivo DILI categorisation in the literature ([10]; ref O'Brien et al. 2006, Xu et al. 2008, Dawson et al. 2012, Persson et al. 2013): non-DILI potential
In vivo DILI ([10]; ref Persson 2013): -VE
In vivo DILI ([10]; ref Proctor 2017): +VE
In vivo DILI ([10]; ref Schadt 2015): +VE
In vivo DILI ([10]; ref Williams 2019): +VE
In vivo DILI ([10]; ref Xu 2008): -VE
THLE-Null [11]: -VE
THLE-Null/3A4 [11]: -VE
Cluster 1-6 +VE Assay [12]: +VE
DILI Score (FDA) (1-8) [13]: 3
Inhibition of rBsep cutoff<1& cmax u>.2 (rBsep): +VE
Inhibition of rBsep cutoff<3 (rBsep): +VE
AC50 (hLiMTs [14]; read-out: ATP endpoint AC50): 106 µM
minimal effective concentration (hLiMTs [14]; read-out: ATP endpoint MEC): 38.1 µM
AC50 (hLiMTs [14]; read-out: HCS endpoint AC50): 9.95 µM
minimal effective concentration (hLiMTs [14]; read-out: HCS endpoint MEC): 5.35 µM
DILI prediction hLiMTs (HCS-MEC) (hLiMTs [14]; [18]): +VE (MEC < 25 × Cmax.tot cut-off)
AC50 (HepaRG spheroids; HepaRG, read-out: ATP endpoint AC50): 67.5 µM
minimal effective concentration (HepaRG spheroids; HepaRG, read-out: ATP endpoint MEC): 44.7 µM
AC50 (HepaRG spheroids; HepaRG, read-out: HCS endpoint AC50): 93.7 µM
minimal effective concentration (HepaRG spheroids; HepaRG, read-out: HCS endpoint MEC): 39.2 µM
DILI prediction HepaRG spheroids (HCS-MEC) (HepaRG spheroids; [18]): +VE (MEC < 25 × Cmax.tot cut-off)
